Results published in patent US4584187A, “Imaging agent and method of use” (priority 1981, dated 1986).
Where two headings read alike, the source gives them in different places.

Key:
[1] = tested on: adrenergic neurons of the heart and chromaffin granules of the adrenal medulla; experiment: Localization in adrenergic tissues; assay type: in vivo
[2] = Stability of radiolabeled compound on storage in solution; assay type: physicochemical; details: 4° C., dark
Source text: The radiochemical purity was greater than 98% as determined by thin-layer chromotography on silica gel G using two solvent systems: (1) 1/l ethyl acetate: ethanol (Rf=0.0; Rf of free radioiodide=0.60); (2) 3/l n-propanol: 10% ammonium hydroxide (Rf=0.15, Rf of free radioiodide=0.75, Rf of meta-iodobenzylamine=0.35). […] Final […].

adrenal medulla = experiment: MIBG adrenal imaging in MEN-2 patients; assay type: in vivo, human; details: for MIBG Adrenal Imaging: 1 and 2 days
Procedure: To display adrenal medullary abnormalities, 500 μCi of ^131 I-mIBG was injected into 6 patients from 5 families with MEN-2 and scintiscans were performed 1 and 2 days later. Percent administered dose uptake was calculated using a semioperator independent algorithm. Adrenal medullary function was assessed by plasma norepinephrine (N) and epinephrine (E) and urinary N, E, metanephrine (M), and normetanephrine (NM) levels.

Pheochromocytomas (PHEO) = experiment: Scintigraphic localization of pheochromocytomas with I-131-mIBG in patients and controls; assay type: in vivo, human
Procedure: Pheochromocytomas (PHEO) were localized with I-131-meta-iodobenzylguanidine(^131 I-mIBG). Five hypertensive patients without PHEO served as controls. I-131-mIBG, 0.5 mCi, was given i.v. Images of areas of interest were made at 24, 48 and 72 hours post-injection. Adrenal (tumor) uptake was estimated with a semioperator-independent computer algorithm. All patients with sporadic PHEO gave clinical and hormonal evidence of their disease.

[3] = Biological tissue distribution of I-125 iodobenzylguanidine in dogs; assay type: in vivo, Female Mongrel Dogs
Procedure: (§1) Biological tissue distribution studies were performed on rats, dogs and monkeys injected intravenously with 25 μCi and 100 μCi respectively of I-125 iodobenzylguanidine in an average volume of 0.3 ml, 2 ml, and 1 ml respectively. Representative samples of tissues were counted in an autogamma counter with corrections made for radioactive decay, background, and counter efficiency. To normalize for differences in animal weights, tissue concentrations are expressed as percent kilogram dose per gram.

[4] = design: species or system Rhesus Monkeys; details: rhesus monkey, in vivo, iv, 180 min
Procedure: as §1

[5] = design: species or system rats; details: rat, in vivo, iv, 30 min
Procedure: as §1

For `N=C(N)NCc1cccc(I)c1` [meta-iodobenzylguanidine, Meta-iodobenzylguanidine], the “accumulation in adrenergic tissues” value ([1]; compared with norepinephrine and guanethidine) was “accumulated in adrenergic tissues in a manner similar to norepinephrine and guanethidine” and the localization ([1]; heart and adrenal medulla) was “localizes in the adrenergic neurons of the heart and chromaffin granules of the adrenal medulla”.
With `N=C(N)NCc1cccc([123I])c1` [I^123 -meta-iodobenzylguanidine] the “radio-composition (decomposition) on storage” value ([2]; up to 4 days as sulfate salt in water or physiological buffered saline, I-123) was “minimal detectable radio-composition”.
With `N=C(N)NCc1cccc([131I])c1` [^131 I-mIBG, I^131 -meta-iodobenzylguanidine] the decomposition on storage ([2]; up to 4 days as sulfate salt in water or physiological saline, I-131) was “no detectable decomposition”, the “MIBG Adrenal Imaging” value (adrenal medulla; patient 1 (apparently unaffected, plasma/urine normal), 500 μCi) was “Nonvisualized” and the “MIBG Adrenal Imaging” value (adrenal medulla; patient 2 (MEN 2a, plasma/urine normal), 500 μCi) was “Nonvisualized”. For the same compound, the “MIBG Adrenal Imaging” value (adrenal medulla; patient 3 (MEN 2a, urine M raised), 500 μCi) was “Faint bilateral”, the “MIBG Adrenal Imaging” value (adrenal medulla; patient 4 (MEN 2b, plasma N, urine NM raised), 500 μCi) was “Distinct bilateral” and the “MIBG Adrenal Imaging” value (adrenal medulla; patient 5 (MEN 2a, plasma N,E, urine E,NM,M raised), 500 μCi) was “Distinct bilateral”. The “MIBG Adrenal Imaging” value (adrenal medulla; patient 6 (MEN 2a, plasma N,E, urine E,NM,M raised), 500 μCi) was “Asymmetric bilateral”, the “scintigraphy of right adrenal gland” value (adrenal medulla; patient 6, confirmed at surgery, only irregular area on CT) was “two distinct tumors” and the “adrenal imaging, patients 1 and 2” value (adrenal medulla; patients 1 and 2, pattern recognized by control studies as normal) was “Neither patient 1 nor patient 2, who was affected with medullary thyroid carcinoma, showed adrenal imaging”. For the same compound, the “percent uptake by the adrenal glands versus hormone values” (adrenal medulla; remaining 4 patients (3-6), 500 μCi) was “increased proportionally to the urine and plasma hormone values”, the “activity seen in malignant (metastatic) PHEO” value (Pheochromocytomas (PHEO); another patient with malignant (metastatic) PHEO) was “only ill-defined activity was seen” and the “scintigrams in PHEO patients” value (Pheochromocytomas (PHEO); each of eight PHEO patients, 0.5 mCi i.v., 24, 48 and 72 hours) was “located abnormal collections of activity”. The “patients in whom abnormalities correspond to PHEOs subsequently excised” value (Pheochromocytomas (PHEO); eight PHEO patients, 0.5 mCi i.v.) was 7 of the 8, the “scintigraphic image of adrenal glands in control subjects” value (Pheochromocytomas (PHEO); five hypertensive controls without PHEO, 0.5 mCi i.v., 24, 48 and 72 hours) was “little or no scintigraphic image of their adrenal glands” and the “activity seen in malignant (metastatic) PHEO” value (Pheochromocytomas (PHEO); one patient with malignant (metastatic) PHEO) was “multiple areas of activity were seen in the skull, chest and abdomen”.
For `N=C(N)NCc1cccc([125I])c1` [I-125 iodobenzylguanidine], the “Tissue concentration, Liver (Mean ± S.E.M.)” value (from here on “Tissue concentration, Liver”) ([3]; dog, in vivo, iv, 30 min) was 0.34 ± .03 % Kg Dose/g, the “Tissue concentration, Lung (Mean ± S.E.M.)” value (from here on “Tissue concentration, Lung”) ([3]; dog, in vivo, iv, 30 min) was 0.22 ± .06 % Kg Dose/g and the “Tissue concentration, Muscle (Mean ± S.E.M.)” value (“Tissue concentration, Muscle” for short) ([3]; dog, in vivo, iv, 30 min) was 0.02 ± .00 % Kg Dose/g. For the same compound, the “Tissue concentration, Thyroid (Mean ± S.E.M.)” value (shortened to “Tissue concentration, Thyroid”) ([3]; dog, in vivo, iv, 30 min) was 0.56 ± .07 % Kg Dose/g, the “Tissue concentration, Adrenal Cortex (Mean ± S.E.M.)” value (from here on “Tissue concentration, Adrenal Cortex”) ([3]; dog, in vivo, iv, 120 min) was 0.39 ± .05 % Kg Dose/g and the “Tissue concentration, Adrenal Medulla (Mean ± S.E.M.)” value ([3]; dog, in vivo, iv, 120 min) was 6.29 ± .25 % Kg Dose/g. For the same compound, the “Tissue concentration, Blood (Mean ± S.E.M.)” value (“Tissue concentration, Blood” below) ([3]; dog, in vivo, iv, 120 min) was 0.02 ± .00 % Kg Dose/g, the “Tissue concentration, Heart (Mean ± S.E.M.)” value (“Tissue concentration, Heart” for short) ([3]; dog, in vivo, iv, 120 min) was 0.50 ± .10 % Kg Dose/g and the “Tissue concentration, Liver” value ([3]; dog, in vivo, iv, 120 min) was “.017 ± .05 % Kg Dose/g”. For the same compound, the “Tissue concentration, Lung” value ([3]; dog, in vivo, iv, 120 min) was 0.46 ± .13 % Kg Dose/g, the “Tissue concentration, Muscle” value ([3]; dog, in vivo, iv, 120 min) was 0.04 ± .00 % Kg Dose/g and the “Tissue concentration, Adrenal Cortex” value ([3]; dog, in vivo, iv, 2880 min) was 0.10 ± .01 % Kg Dose/g. The “Tissue concentration, Adrenal Medulla (Mean ± S.E.M.)” value ([3]; dog, in vivo, iv, 2880 min) was 13.6 ± 1.1 % Kg Dose/g, the “Tissue concentration, Blood” value ([3]; dog, in vivo, iv, 2880 min) was 0.01 ± .00 % Kg Dose/g and the “Tissue concentration, Heart” value ([3]; dog, in vivo, iv, 2880 min) was 0.06 ± .01 % Kg Dose/g. The “Tissue concentration, Liver” value ([3]; dog, in vivo, iv, 2880 min) was 0.02 ± .00 % Kg Dose/g, the “Tissue concentration, Lung” value ([3]; dog, in vivo, iv, 2880 min) was 0.03 ± .00 % Kg Dose/g and the “Tissue concentration, Muscle” value ([3]; dog, in vivo, iv, 2880 min) was 0.02 ± .00 % Kg Dose/g. The “Tissue concentration, Adrenal Cortex” value ([3]; dogs (2), i.v., 30 min, adrenal cortex) was 0.61 ± .02 % Kg Dose/g, the “Tissue concentration, Adrenal Medulla (Mean ± S.E.M.)” value ([3]; dogs (2), i.v., 30 min, adrenal medulla) was 5.35 ± .71 % Kg Dose/g and the “Tissue concentration, Blood” value ([3]; dogs (2), i.v., 30 min, blood) was 0.02 ± .00 % Kg Dose/g. The “Tissue concentration, Heart” value ([3]; dogs (2), i.v., 30 min, heart) was 0.47 ± .02 % Kg Dose/g, the “Tissue concentration, Thyroid” value ([3]; dogs (2), i.v., 2 hours, thyroid) was 0.56 ± .05 % Kg Dose/g and the “Tissue concentration, Thyroid” value ([3]; dogs (2), i.v., 48 hours, thyroid) was 1.27 ± .47 % Kg Dose/g. For the same compound, the “Tissue concentration, Adrenal Cortex” value [4] was 0.42 ± .12 % Kg Dose/g, the “Tissue concentration, Adrenal Medullae (Mean ± S.E.M.)” value [4] was 2.69 ± .28 % Kg Dose/g and the “Tissue concentration, Blood” value [4] was 0.02 ± .00 % Kg Dose/g. The “Tissue concentration, Heart” value [4] was 0.64 ± .03 % Kg Dose/g, the “Tissue concentration, Liver” value [4] was 0.76 ± .03 % Kg Dose/g and the “Tissue concentration, Lung” value [4] was 0.17 ± .00 % Kg Dose/g. The “Tissue concentration, Muscle” value [4] was 0.02 ± .00 % Kg Dose/g, the “Tissue concentration, Blood” value [5] was “.03 ± .00 % Kg Dose/g” and the “Tissue concentration, Heart” value [5] was 1.09 ± .06 % Kg Dose/g. The “Tissue concentration, Liver” value [5] was “.36 ± .02 % Kg Dose/g”, the “Tissue concentration, Lung” value [5] was “.70 ± .06 % Kg Dose/g” and the “Tissue concentration, Muscle” value [5] was “.25 ± .02 % Kg Dose/g”. The “Tissue concentration, Thyroid” value [5] was “.76 ± .04 % Kg Dose/g”.
